Test results published in the NIST ThermoML archive (doi:10.1016/j.jct.2016.09.013).

Conditions: Liquid; for viscosity: Concentric cylinders viscometry

CCn1cc[n+](C)c1.COP(=O)([O-])OC [1-ethyl-3-methylimidazolium dimethylphosphate]
101.33 kPa
Conditions | viscosity [mPa·s]
303.15 K | 186
313.15 K | 107.5
323.15 K | 67.1
333.15 K | 44.64
343.15 K | 31.27
353.15 K | 22.85
363.15 K | 17.29
373.15 K | 13.47

Conditions | mass density [kg/m3]
303.15 K, 101.33 kPa, Vibrating tube method | 1214.4
312 K, 10000 kPa, Bellows volumetry | 1212.6
312 K, 20000 kPa, Bellows volumetry | 1216.9
312 K, 30000 kPa, Bellows volumetry | 1221
312 K, 40000 kPa, Bellows volumetry | 1224.9
312 K, 50000 kPa, Bellows volumetry | 1228.8
312 K, 60000 kPa, Bellows volumetry | 1232.5
313.15 K, 101.33 kPa, Vibrating tube method | 1207.6
323.15 K, 101.33 kPa, Vibrating tube method | 1200.9
331.7 K, 10000 kPa, Bellows volumetry | 1199.7
331.7 K, 20000 kPa, Bellows volumetry | 1204.1
331.7 K, 30000 kPa, Bellows volumetry | 1208.5
331.7 K, 40000 kPa, Bellows volumetry | 1212.6
331.7 K, 50000 kPa, Bellows volumetry | 1216.6
331.7 K, 60000 kPa, Bellows volumetry | 1220.4
331.7 K, 70000 kPa, Bellows volumetry | 1224.1
331.7 K, 80000 kPa, Bellows volumetry | 1227.8
331.7 K, 90000 kPa, Bellows volumetry | 1231.3
331.7 K, 100000 kPa, Bellows volumetry | 1234.7
331.7 K, 110000 kPa, Bellows volumetry | 1238.1
331.7 K, 120000 kPa, Bellows volumetry | 1241.3
331.7 K, 130000 kPa, Bellows volumetry | 1244.5
331.7 K, 140000 kPa, Bellows volumetry | 1247.6
331.7 K, 150000 kPa, Bellows volumetry | 1250.8
331.7 K, 160000 kPa, Bellows volumetry | 1253.7
331.7 K, 170000 kPa, Bellows volumetry | 1256.7
331.7 K, 180000 kPa, Bellows volumetry | 1259.5
331.7 K, 190000 kPa, Bellows volumetry | 1262.3
331.7 K, 200000 kPa, Bellows volumetry | 1265.2
333.15 K, 101.33 kPa, Vibrating tube method | 1194.3
343.15 K, 101.33 kPa, Vibrating tube method | 1187.6
351.7 K, 10000 kPa, Bellows volumetry | 1186.8
351.7 K, 20000 kPa, Bellows volumetry | 1191.5
351.7 K, 30000 kPa, Bellows volumetry | 1196
351.7 K, 40000 kPa, Bellows volumetry | 1200.3
351.7 K, 50000 kPa, Bellows volumetry | 1204.5
351.7 K, 60000 kPa, Bellows volumetry | 1208.5
351.7 K, 70000 kPa, Bellows volumetry | 1212.4
351.7 K, 80000 kPa, Bellows volumetry | 1216.2
351.7 K, 90000 kPa, Bellows volumetry | 1219.8
351.7 K, 100000 kPa, Bellows volumetry | 1223.3
351.7 K, 110000 kPa, Bellows volumetry | 1226.9
351.7 K, 120000 kPa, Bellows volumetry | 1230.4
351.7 K, 130000 kPa, Bellows volumetry | 1233.6
351.7 K, 140000 kPa, Bellows volumetry | 1236.9
351.7 K, 150000 kPa, Bellows volumetry | 1240
351.7 K, 160000 kPa, Bellows volumetry | 1243.2
351.7 K, 170000 kPa, Bellows volumetry | 1246.2
351.7 K, 180000 kPa, Bellows volumetry | 1249.1
351.7 K, 190000 kPa, Bellows volumetry | 1252
351.7 K, 200000 kPa, Bellows volumetry | 1255
353.15 K, 101.33 kPa, Vibrating tube method | 1181.1
363.15 K, 101.33 kPa, Vibrating tube method | 1174.5
372.4 K, 10000 kPa, Bellows volumetry | 1174.1
372.4 K, 20000 kPa, Bellows volumetry | 1179
372.4 K, 30000 kPa, Bellows volumetry | 1182.8
372.4 K, 40000 kPa, Bellows volumetry | 1188.3
372.4 K, 50000 kPa, Bellows volumetry | 1192.6
372.4 K, 60000 kPa, Bellows volumetry | 1196.9
372.4 K, 70000 kPa, Bellows volumetry | 1200.9
372.4 K, 80000 kPa, Bellows volumetry | 1204.9
372.4 K, 90000 kPa, Bellows volumetry | 1208.7
372.4 K, 100000 kPa, Bellows volumetry | 1212.4
372.4 K, 110000 kPa, Bellows volumetry | 1216
372.4 K, 120000 kPa, Bellows volumetry | 1219.5
372.4 K, 130000 kPa, Bellows volumetry | 1223
372.4 K, 140000 kPa, Bellows volumetry | 1226.3
372.4 K, 150000 kPa, Bellows volumetry | 1229.6
372.4 K, 160000 kPa, Bellows volumetry | 1232.8
372.4 K, 170000 kPa, Bellows volumetry | 1235.9
372.4 K, 180000 kPa, Bellows volumetry | 1238.9
372.4 K, 190000 kPa, Bellows volumetry | 1242
372.4 K, 200000 kPa, Bellows volumetry | 1244.9
373.15 K, 101.33 kPa, Vibrating tube method | 1168.1
391.9 K, 10000 kPa, Bellows volumetry | 1161.7
391.9 K, 20000 kPa, Bellows volumetry | 1166.8
391.9 K, 30000 kPa, Bellows volumetry | 1171.8
391.9 K, 40000 kPa, Bellows volumetry | 1176.6
391.9 K, 50000 kPa, Bellows volumetry | 1181.2
391.9 K, 60000 kPa, Bellows volumetry | 1185.6
391.9 K, 70000 kPa, Bellows volumetry | 1189.9
391.9 K, 80000 kPa, Bellows volumetry | 1194
391.9 K, 90000 kPa, Bellows volumetry | 1198
391.9 K, 100000 kPa, Bellows volumetry | 1201.8
391.9 K, 110000 kPa, Bellows volumetry | 1205.6
391.9 K, 120000 kPa, Bellows volumetry | 1209.1
391.9 K, 130000 kPa, Bellows volumetry | 1212.7
391.9 K, 140000 kPa, Bellows volumetry | 1216.1
391.9 K, 150000 kPa, Bellows volumetry | 1219.5
391.9 K, 160000 kPa, Bellows volumetry | 1222.8
391.9 K, 170000 kPa, Bellows volumetry | 1226
391.9 K, 180000 kPa, Bellows volumetry | 1229.1
391.9 K, 190000 kPa, Bellows volumetry | 1232.2
391.9 K, 200000 kPa, Bellows volumetry | 1235.3
